In article PMC3158843 (ACS chemical biology, 2011):
No end group written: not given here.

Columns and labels:
[1] = system: JNK on mitochondria of HeLa cells; settings: N-acetylcysteine; earlier data, ref "Recent data from our lab"; cited from earlier work
[2] = system: JNK on mitochondria of HeLa cells; format: cell-based
[3] = system: c-jun phosphorylation in HeLa cells; assay: c-jun phosphorylation in anisomycin-treated HeLa cells, Western blot; format: cell-based; settings: 25µM anisomycin, 0-120 min
HeLa cells [4] = assay: Mitochondrial membrane potential, JC-1; format: cell-based
[5] = system: JNK phosphorylation in HeLa cells; assay: JNK phosphorylation in anisomycin-treated HeLa cells, Western blot; format: cell-based; settings: 25µM anisomycin
HeLa cells [6] = settings: 25µM anisomycin, 4 hours
JNK = settings: cited from earlier work
JNK3α1 [7] = target: T1, JNK3α1 (Homo sapiens, UniProt P53779)
[8] = target: JNK1α1 (active, recombinant) (human) (UniProt P45983)
JNK3α1 [9] = target: T1, JNK3α1; assay: Fluorescence polarization assay for peptide binding
JNK3α1 [10] = target: T1, JNK3α1; assay: Kinase-Glo phosphorylation assay, JNK3α1; format: biochemical; settings: 4-parameter nonlinear regression, 30°C, 60 min
[11] = system: recombinant JNK1α1 / mitochondria of JNK-null fibroblasts; parameters: species or system murine; settings: TI-JIP 1µM, Tat-SabKIM1 10µM
HeLa cells [12] = assay: Cytochrome c release, ELISA; format: cell-based; settings: 25µM anisomycin 4 hours; Tat-SabKIM1 10µM, TI-JIP 1µM, siRNA 50nM

CC(=O)N[C@@H](CS)C(=O)O [N-acetylcysteine]
JNK translocation to the mitochondria [1]: inhibits JNK translocation to the mitochondria

COc1ccc(C[C@H]2NC[C@H](O)[C@H]2OC(C)=O)cc1 [anisomycin]
phospho-JNK on the mitochondria ([2]; 25µM anisomycin): as early as 5 minutes and peaked at 30 minutes
Sab abundance on the mitochondria ([2]; 25µM anisomycin stress): did not have altered abundance
JNK species found on the mitochondria ([2]; 25µM anisomycin, Western blot): only the 54kDa species was found on the mitochondria
c-jun levels [3]: remained constant
c-jun phosphorylation on serine 73 [3]: increased at 15–30 minutes, peaking at 45–60 min, then decreasing following 60 minutes
increase in percent depolarized mitochondria (HeLa cells [4]; 25µM anisomycin, 45 min, vs DMSO-treated cells): 40–50%
JNK phosphorylation ([5]; 0-120 min): increased JNK phosphorylation between 15 and 30 minutes, and then JNK phosphorylation decreased after 30 minutes
total JNK abundance ([5]; two hour time course): unchanged
cell death (HeLa cells [6]): 50%
decrease in viability (HeLa cells [6]; vs DMSO-treated cells): ~ 50%

AVVRPGSLDLR [Sab KIM1 motif]
inhibition of JNK phosphorylation of c-jun / transcription factors (JNK; ref [15]): little, if any impact

Sab KIM1 peptide: Sab KIM1 motif examined earlier as an inhibitor of JNK mediated c-jun phosphorylation (GFESLSVPSPLDLSGPRVVAPPRRRQRRKKRG; not fully specified; retro-inverso configuration; C-terminal amide (-NH2))
impact on c-jun phosphorylation (JNK; ref [18]): did not impact c-jun phosphorylation

Tat-TI-JIP (peptide)
IC50 of inhibition of JNK3α1 phosphorylation of ATF2 (Kinase-Glo assay) (JNK3α1 [7]): 27 nM
IC50 of inhibition of JNK3α1 phosphorylation of Sab protein (Kinase-Glo assay) (JNK3α1 [7]): 18 nM
IC50 of inhibition of JNK3α1 phosphorylation of c-jun (Kinase-Glo assay) (JNK3α1 [7]): 38 nM
IC50 of inhibition of JNK1α1 phosphorylation of c-jun (1–79) (Kinase-Glo assay) [8]: 34 nM

YGRKKRRQRRRRPKRPTTLNLF-NH2 [Tat-TI-JIP]
Kd (JNK3α1 [9]): 450 ± 60 nM
affinity of JNK3α1 compared to the Sab peptide (JNK3α1 [9]; greater affinity for JIP peptide vs Sab peptide, fluorescence polarization): 25 -fold
IC50 (JNK3α1 [10]; IC50 -vs-Sab, JNK3α1, substrate Sab): 18 ± 9 nM
IC50 (JNK3α1 [10]; IC50 -vs-c-jun, JNK3α1, substrate c-jun): 38 ± 12 nM
levels of Sab on isolated mitochondria [11]: did not alter the levels of Sab
Sab expression on mitochondria of HeLa cells with peptide ([2]; 25µM anisomycin 30 min, TI-JIP 1µM, Tat-SabKIM1 10µM): without impacting Sab expression
mitochondrial membrane potential (MMP) dissipation (HeLa cells [4]; JC-1, 25µM anisomycin 45 min, Tat-SabKIM1 10µM, TI-JIP 1µM, siRNA 50nM): decreased the amount of mitochondria with dissipating MMP
cytochrome c release from the mitochondria (HeLa cells [12]): capable of reducing cytochrome c release
Ki (JNK; read-out: Ki, inhibition of JNK activity versus ATF-2, ref [19], [20]): 25 nM
inhibition of JNK catalytic activity with respect to substrate binding (JNK; ref [19]–[21]): potent inhibitor
